Source: patent US10065990B2, “Cyclic peptide compound, and preparation method, pharmaceutical composition and use thereof” (HANGZHOU GUANYU BIO-MEDICAL CO., LTD, priority 2013, dated 2018)
Where two headings read alike, the source gives them in different places.

Experiments:
HDAC2 = HDAC2 (Homo sapiens, UniProt Q92769); test: HDAC biochemical activity measurement (fluorescent substrate deacetylation);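 further: HDAC2 enzyme with an acetyl-lysine fluorescent substrate, then developer added, fluorescence read at excitation 360 nm and emission 460 nm, inhibition measured across several compound concentrations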; conditions: 37° C. 30 minutes
[1] = tested on: K562 (human leukemia cells); test: MTT cancer cell growth inhibition; assay type: cell-based; conditions: Homo sapiens, K562, 72 h, MTT, 72 hours incubation, K562 cells; read-out: GI50 K562
Summary of the method: (§1)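 Three-day compound exposure (final 10^−5–10^−10 M, three replicate wells) of cells seeded at 1500 per well precedes a 4 h MTT incubation at 37° C. Viability is taken from 570 nm absorbance after DMSO solubilisation, and GI50 calculated from it.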

[2] = tested on: DU145 (human prostate cancer cells); test: MTT cancer cell growth inhibition; assay type: cell-based; conditions: Homo sapiens, DU-145, 72 h, MTT
Summary of the method: as §1

[3] = tested on: PANC-1 (Pac-1, human pancreatic cancer cells); test: MTT cancer cell growth inhibition; assay type: cell-based; conditions: Homo sapiens, PANC-1, 72 h, MTT
Summary of the method: as §1

[4] = tested on: MOLT-4 (human acute lymphoblastic leukemia cells); test: MTT cancer cell growth inhibition; assay type: cell-based; conditions: Homo sapiens, MOLT-4, 72 h, MTT
Summary of the method: as §1

[5] = tested on: Huh-7 (human hepatoma cells); test: MTT cancer cell growth inhibition; assay type: cell-based; conditions: Homo sapiens, Huh-7, 72 h, MTT, 72 hours incubation, Huh-7 cells; read-out: GI50 Huh-7
Summary of the method: as §1

[6] = tested on: HCC827 (human non-small cell lung cancer cells); test: MTT cancer cell growth inhibition; assay type: cell-based; conditions: Homo sapiens, HCC827, 72 h, MTT, 72 hours incubation, HCC827 cells; read-out: GI50 HCC827
Summary of the method: as §1

[7] = tested on: KBM5-T315I (human chronic myelogenous leukemia); test: MTT cancer cell growth inhibition; assay type: cell-based; conditions: Homo sapiens, 72 h, MTT, 72 hours incubation, KBM5-T315I cells; read-out: GI50 KBM5-T315I
Summary of the method: as §1

[8] = tested on: N-87 (human gastric cancer cells); test: MTT cancer cell growth inhibition; assay type: cell-based; conditions: Homo sapiens, 72 h, MTT, 72 hours incubation, N-87 cells; read-out: GI50 N-87
Summary of the method: as §1

[9] = tested on: H1975 (non-small cell lung adenocarcinoma); test: MTT cancer cell growth inhibition; assay type: cell-based; conditions: Homo sapiens, NCI-H1975, 72 h, MTT, 72 hours incubation, H1975 cells; read-out: GI50 H1975
Summary of the method: as §1

[10] = tested on: MCF-7 (human breast cancer cells); test: MTT cancer cell growth inhibition; assay type: cell-based; conditions: Homo sapiens, MCF7, 72 h
Summary of the method: as §1

[11] = tested on: BGC-823 (human gastric cancer cells); test: MTT cancer cell growth inhibition; assay type: cell-based; conditions: Homo sapiens, BGC-823, 72 h, MTT
Summary of the method: as §1

[12] = tested on: A549 (human lung cancer cells); test: MTT cancer cell growth inhibition; assay type: cell-based; conditions: Homo sapiens, A549, 72 h, MTT
Summary of the method: as §1

[13] = tested on: SGC-7901 (human gastric cancer cells); test: MTT cancer cell growth inhibition; assay type: cell-based; conditions: Homo sapiens, SGC-7901, 72 h, MTT, 72 hours incubation, SGC-7901 cells; read-out: GI50 SGC-7901
Summary of the method: as §1

[14] = tested on: MDA-MB-231 (breast cancer cells); test: MTT cancer cell growth inhibition; assay type: cell-based; conditions: Homo sapiens, MDA-MB-231, 72 h, read-out: GI50 MDA-MB-231, MTT, 72 hours incubation, MDA-MB-231 cells
Summary of the method: as §1

[15] = tested on: U937 (human leukemia cells); test: MTT cancer cell growth inhibition; assay type: cell-based; conditions: Homo sapiens, U-937, 72 h, MTT
Summary of the method: as §1

[16] = tested on: HT1080 (human fibrosarcoma cells); test: MTT cancer cell growth inhibition; assay type: cell-based; conditions: Homo sapiens, HT-1080, 72 h, MTT
Summary of the method: as §1

[17] = tested on: Hela (human cervical cancer cells); test: MTT cancer cell growth inhibition; assay type: cell-based; conditions: Homo sapiens, HeLa, 72 h, MTT
Summary of the method: as §1

[18] = tested on: lncap (prostate cancer cells); test: MTT cancer cell growth inhibition; assay type: cell-based; conditions: Homo sapiens, LNCaP, 72 h, MTT
Summary of the method: as §1

[19] = tested on: KBM-5 (human chronic myelogenous leukemia); test: MTT cancer cell growth inhibition; assay type: cell-based; conditions: Homo sapiens, KBM5, 72 h, MTT, 72 hours incubation, KBM-5 cells; read-out: GI50 KBM-5
Summary of the method: as §1

[20] = tested on: Bel-7402 (human hepatoma cells); test: MTT cancer cell growth inhibition; assay type: cell-based; conditions: Homo sapiens, Bel-7402, 72 h, MTT, 72 hours incubation, Bel-7402 cells; read-out: GI50 Bel-7402
Summary of the method: as §1

[21] = DU145 cells, 72 hours incubation, read-out: GI50 Du1
[22] = PANC-1 cells, 72 hours incubation, read-out: GI50 PAN
[23] = MOLT-4 cells, 72 hours incubation, read-out: GI50 Mol
[24] = MCF-7 cells, 72 hours incubation, read-out: GI50 MCF
[25] = BGC-823 cells, 72 hours incubation, read-out: GI50 BG
[26] = A549 cells, 72 hours incubation, read-out: GI50 A54
[27] = U937 cells, 72 hours incubation, read-out: GI50 U93
[28] = HT1080 cells, 72 hours incubation, read-out: GI50 HT1
[29] = Hela cells, 72 hours incubation, read-out: GI50 Hela
[30] = lncap cells, 72 hours incubation, read-out: GI50 lnca
[31] = 72 hours incubation, read-out: GI50 Du1
[32] = 72 hours incubation, read-out: GI50 PAN
[33] = 72 hours incubation, read-out: GI50 Mol
[34] = 72 hours incubation, read-out: GI50 MCF
[35] = 72 hours incubation, read-out: GI50 BG
[36] = 72 hours incubation, read-out: GI50 A54
[37] = 72 hours incubation, read-out: GI50 U93
[38] = 72 hours incubation, read-out: GI50 HT1
[39] = 72 hours incubation, read-out: GI50 Hela
[40] = 72 hours incubation, read-out: GI50 lnca

Chain of HDAC2 (Q92769 whole entry, species assumed): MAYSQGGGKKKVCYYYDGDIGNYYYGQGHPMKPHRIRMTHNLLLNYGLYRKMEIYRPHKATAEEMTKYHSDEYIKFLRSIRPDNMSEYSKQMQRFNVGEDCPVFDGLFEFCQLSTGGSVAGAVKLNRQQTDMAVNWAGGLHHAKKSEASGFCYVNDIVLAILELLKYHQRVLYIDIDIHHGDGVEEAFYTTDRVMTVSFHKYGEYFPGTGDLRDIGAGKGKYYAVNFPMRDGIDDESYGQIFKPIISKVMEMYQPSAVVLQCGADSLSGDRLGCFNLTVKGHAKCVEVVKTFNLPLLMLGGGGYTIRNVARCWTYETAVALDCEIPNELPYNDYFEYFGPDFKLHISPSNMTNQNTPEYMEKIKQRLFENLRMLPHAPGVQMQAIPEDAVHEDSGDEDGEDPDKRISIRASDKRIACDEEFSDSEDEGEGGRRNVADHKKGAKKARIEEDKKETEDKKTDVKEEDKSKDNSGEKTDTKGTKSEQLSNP

## CCCCCCCC(=O)SCC/C=C/[C@@H]1CC(=O)NCc2cccc(n2)C(=O)NCC(=O)N[C@@H](C(C)C)C(=O)O1 [Compound 246]
HDAC2
  IC50: 69 nM
[1]
  GI50: 12 nM
[2]; [21]
  GI50: 20 nM
[2]; 72 hours, present invention, read-out: GI50 Du145, a
  GI50: 20 nM
[3]; 72 hours, present invention, read-out: GI50 PANC-1, a
  GI50: 870 nM
[3]; [22]
  GI50: 870 nM
[4]; [23]
  GI50: 910 nM
[4]; 72 hours, present invention, read-out: GI50 Molt-4, a
  GI50: 910 nM
[5]
  GI50: 21 nM
[6]
  GI50: 53 nM
[7]
  GI50: 33 nM
[8]
  GI50: 41 nM
[9]
  GI50: 63 nM
[10]; 72 hours, present invention, read-out: GI50 MCF7, a
  GI50: 310 nM
[10]; [24]
  GI50: 310 nM
[11]; [25]
  GI50: 1020 nM
[11]; 72 hours, present invention, read-out: GI50 BGC823, a
  GI50: 1020 nM
[12]; [26]
  GI50: 110 nM
[12]; 72 hours, present invention, read-out: GI50 A549, a
  GI50: 110 nM
[13]
  GI50: 32 nM
[14]
  GI50: 47 nM
[15]; 72 hours, present invention, read-out: GI50 U937, a
  GI50: 110 nM
[15]; [27]
  GI50: 110 nM
[16]; [28]
  GI50: 10 nM
[16]; 72 hours, present invention, read-out: GI50 HT1080, a
  GI50: 17 nM
[17]; [29]
  GI50: 10 nM
[17]; 72 hours, present invention, read-out: GI50 Hela, a
  GI50: 13 nM
[18]; 72 hours, present invention, read-out: GI50 lncap, a
  GI50: 130 nM
[18]; [30]
  GI50: 130 nM
[19]
  GI50: 56 nM
[20]
  GI50: 38 nM

## C/C=C1\NC(=O)c2cccc(n2)NC(=O)C[C@@H](/C=C/CCSC(C)=O)OC(=O)[C@H](C(C)C)NC1=O [Example 22]
HDAC2
  IC50: 54 nM
[1]
  GI50: 34 nM
[2]; [31]
  GI50: 40 nM
[3]; [32]
  GI50: 4070 nM
[4]; [33]
  GI50: 2060 nM
[5]
  GI50: 82 nM
[6]
  GI50: 59 nM
[7]
  GI50: 26 nM
[8]
  GI50: 39 nM
[9]
  GI50: 41 nM
[10]; [34]
  GI50: 1110 nM
[11]; [35]
  GI50: 5880 nM
[12]; [36]
  GI50: 1030 nM
[13]
  GI50: 53 nM
[14]
  GI50: 92 nM
[15]; [37]
  GI50: 120 nM
[16]; [38]
  GI50: 50 nM
[17]; [39]
  GI50: 390 nM
[18]; [40]
  GI50: 390 nM
[19]
  GI50: 72 nM
[20]
  GI50: 84 nM

## C/C=C1\NC(=O)c2ccc(F)c(n2)CNC(=O)C[C@@H](/C=C/CCSC(=O)CCCCCCC)OC(=O)[C@H](Cc2ccccc2)NC1=O [Example 71]
HDAC2
  IC50: 29 nM
[1]
  GI50: 63 nM
[2]; [31]
  GI50: 60 nM
[3]; [32]
  GI50: 80 nM
[4]; [33]
  GI50: 20 nM
[5]
  GI50: 29 nM
[6]
  GI50: 84 nM
[7]
  GI50: 28 nM
[8]
  GI50: 55 nM
[9]
  GI50: 51 nM
[10]; [34]
  GI50: 20 nM
[11]; [35]
  GI50: 50 nM
[12]; [36]
  GI50: 30 nM
[13]
  GI50: 35 nM
[14]
  GI50: 29 nM
[15]; [37]
  GI50: 50 nM
[16]; [38]
  GI50: 80 nM
[17]; [39]
  GI50: 70 nM
[18]; [40]
  GI50: 20 nM
[19]
  GI50: 73 nM
[20]
  GI50: 84 nM

## C/C=C1\NC(=O)c2nc(ccc2F)CNC(=O)C[C@@H](/C=C/CCSC(=O)CCCCCCC)OC(=O)[C@H](C)NC1=O [Example 60]
HDAC2
  IC50: 37 nM
[1]
  GI50: 27 nM
[2]; [31]
  GI50: 20 nM
[3]; [32]
  GI50: 50 nM
[4]; [33]
  GI50: 10 nM
[5]
  GI50: 19 nM
[6]
  GI50: 57 nM
[7]
  GI50: 83 nM
[8]
  GI50: 63 nM
[9]
  GI50: 42 nM
[10]; [34]
  GI50: 80 nM
[11]; [35]
  GI50: 60 nM
[12]; [36]
  GI50: 40 nM
[13]
  GI50: 43 nM
[14]
  GI50: 19 nM
[15]; [37]
  GI50: 40 nM
[16]; [38]
  GI50: 50 nM
[17]; [39]
  GI50: 70 nM
[18]; [40]
  GI50: 10 nM
[19]
  GI50: 74 nM
[20]
  GI50: 57 nM

## C/C=C1\NC(=O)c2nc(ccc2SCCC)CNC(=O)C[C@@H](/C=C/CCSC(=O)CCCCCCC)OC(=O)[C@H](CC)NC1=O [Compound 174]
HDAC2
  IC50: 32 nM
[1]
  GI50: 13 nM
[2]; [21]
  GI50: 50 nM
[3]; [22]
  GI50: 100 nM
[4]; [23]
  GI50: 20 nM
[5]
  GI50: 11 nM
[6]
  GI50: 46 nM
[7]
  GI50: 96 nM
[8]
  GI50: 31 nM
[9]
  GI50: 57 nM
[10]; [24]
  GI50: 80 nM
[11]; [25]
  GI50: 30 nM
[12]; [26]
  GI50: 50 nM
[13]
  GI50: 26 nM
[14]
  GI50: 16 nM
[15]; [27]
  GI50: 70 nM
[16]; [28]
  GI50: 10 nM
[17]; [29]
  GI50: 20 nM
[18]; [30]
  GI50: 30 nM
[19]
  GI50: 15 nM
[20]
  GI50: 41 nM
